Data published in US4814340A, “1,4-diaryl alkane derivatives having insecticidal and acaricidal activity” (priority 1982, dated 1989).
Counter-ions that a name gives are not always drawn. Like-named read-outs stand apart in the source and are kept apart here.

What was measured:
[1] = test system: green rice leafhopper (female adults); experiment: Test 2 (Effect on Green Rice Leafhopper); type: in vivo; settings: Nephotettix cincticeps, 48 hours, female adults, read-out: Mortality (%)
Method: (§1) Compounds (a) through (g) described below were tested as comparative compounds in the same manner as the compounds of the present invention. All the tests were doubly carried out. Namely, each result was expressed by an average value of two data.
Four or five seedlings of paddy rice with three leaves were bundled, and thereon the same dilution of the emulsifiable concentrate as used in Test 1 was sprayed in an amount of 3 ml. The bundle was dried and covered with a metal net cylinder, and 10 female adults of green rice leafhopper were set free in the cylinder. 48 hours after, the number of killed adults was counted.

[2] = test system: common cutworm (third-instar larvae); experiment: Test 1 (Effect on Common Cutworm); type: in vivo; settings: Spodoptera litura
Method: as §1
The emulsifiable concentrate of the test compound, prepared according to the method described in Formulation Example 1, was diluted with water to a specified concentration. Sweet potato leaves were sufficiently immersed in the dilution. The sweet potato leaves were dried and placed in a plastic cup having a diameter of 10 cm, and 10 third-instar larvae of common cutworm were set free in each cup. 48 hours after, the numbers of killed and living larvae were counted and the mortality was calculated.

yearling carps = experiment: Test 5 (Fish Toxicity); type: in vivo, carp
Method: as §1
A water tank having a width of 60 cm, a length of 30 cm and a height of 40 cm was filled with water, and 10 yearling carps having a body length of about 5 cm were set free in the tank and adapted to the environment in the tank. An acetone solution of a test compound was applied into water so as to become a concentration of 1 or 0.1 ppm in water by adding said acetone solution at a rate of one part by volume per 100 parts by volume of water. 48 hours after, the number of killed and living carps was counted and the effect of a test compound on carps was examined.

[3] = 20 ppm, 48 hours, third-instar larvae, read-out: Mortality (%)
[4] = 100 ppm, 48 hours, third-instar larvae, read-out: Mortality (%)

Compound	mortality at 20 ppm [1]	mortality at 100 ppm [1]	mortality at 20 ppm [2, 3]	mortality at 100 ppm [2, 4]	Mortality(%) 48 Hours After (yearling carps; 0.1 ppm in water)	Mortality(%) 48 Hours After (yearling carps; 1 ppm in water)	mortality at 20 ppm ([2]; 48 h)	mortality at 100 ppm ([2]; 48 h)
C#CCOc1ccc(C(C)(C)CCCc2cccc(Oc3ccccc3)c2)cc1 [Compound 45]	80%	100%	80%	100%				
CC(C)(CCCc1cccc(Oc2ccccc2)c1)c1cccc(Cl)c1 [Compound 21]	100%	100%			0%	0%		
CCOc1ccc(C2(CCCc3ccc(F)c(Oc4ccccc4)c3)CCC2)cc1 [Compound 38, 1-(3-Phenoxy-4-fluorophenyl)-3-[1-(4-ethoxyphenyl)cyclobutyl]propane]	100%	100%			0%	0%		
CCCOc1ccc(C(C)(C)CCCc2cccc(Oc3ccccc3)c2)cc1 [Compound 33]	100%	100%			0%	0%		
Clc1ccc(C2(CCCc3cccc(Oc4ccccc4)c3)CC2(Cl)Cl)cc1 (centres unmarked) [Compound 50, 1-(3-Phenoxyphenyl)-3-[1-(4-chlorophenyl)-2,2-dichlorocyclopropyl]-propane]	50%	100%						
CCOc1ccc(C(C)(C)CCCc2cccc(Cc3ccccc3)c2)cc1 [Compound 14, 1-(3-benzylphenyl)-4-(4-ethoxyphenyl)-4-methylpentane]	50%	90%						
Oc1c(Cl)c(Cl)c(Cl)c(Cl)c1Cl [(f), PCP sodium salt, reference compound]					55%	100%		
CC(C)(CCCc1cccc(Oc2ccccc2)c1)c1ccccc1 [Compound 17]	95%	100%	50%	100%	0%	0%		
CC(C)(CCCc1cccc(Oc2ccccc2)c1)c1ccc(Cl)cc1 [Compound 8, 1-(3-phenoxyphenyl)-4-(4-chlorophenyl)-4-methylpentane]	100%	100%	95%	100%	0%	0%		
CC(C)=Cc1ccc(C(C)(C)CCCc2cccc(Oc3ccccc3)c2)cc1 [Compound 59]	70%	100%						
CC(C)(CCCc1cccc(Oc2ccccc2)c1)c1ccc(Oc2ccccc2)cc1 [Compound 46]	100%	100%	85%	100%				
CC(C)(CCCc1cccc(Oc2ccccc2)c1)c1ccc(C(=O)OC(F)(F)C(F)F)cc1 [Compound 69]	75%	100%						
CCOc1ccc(C(C)(C)CCCc2cccc(C(=O)c3ccccc3)c2)cc1 [Compound 34]	50%	100%						
CC(C)(CCCc1cccc(Oc2ccccc2)c1)c1ccc(C#N)cc1 [Compound 58, 1-(3-Phenoxyphenyl)-4-(4-cyanophenyl)-4-methylpentane]	100%	100%	80%	100%				
CNC(=O)ON=C(C)SC [(d), Methomyl, reference compound]							80%	100%
CCOc1ccc(C(C)(C)CCC(C#N)c2cccc(Oc3ccccc3)c2)cc1 (centres unmarked) [Compound 15, 1-(3-Phenoxyphenyl)-1-cyano-4-(4-ethoxyphenyl)-4-methylpentane]	70%	95%						
C#CC(CCC(C)(C)c1ccc(OCC)cc1)c1ccc(F)c(Oc2ccccc2)c1 (centres unmarked) [Compound 51, 1-(3-Phenoxy-4-fluorophenyl)-1-ethynyl-4-(4-ethoxyphenyl)-4-methylpentane]	60%	90%						
CC(C)(CCCc1cccc(Oc2ccccc2)c1)c1ccc(OC(F)=CCl)cc1 [Compound 37]			80%	100%				
CC(C)(CCC(C#N)c1ccc(F)c(Oc2ccccc2)c1)c1ccc(Cl)cc1 (centres unmarked) [Compound 62, 1-(3-Phenoxy-4-fluorophenyl)-1-cyano-4-(4-chlorophenyl)-4-methylpentane]	45%	100%						
CCC(CCCc1cccc(Oc2ccccc2)c1)c1ccc(Cl)cc1 (centres unmarked) [Compound 23]	75%	100%			0%	0%		
CC(C)(CCCc1cccc(Oc2ccccc2)c1)c1ccc(Br)cc1 [Compound 47]	75%	100%						

Compound	mortality at 20 ppm [1]	mortality at 100 ppm [1]	mortality at 20 ppm [2, 3]	mortality at 100 ppm [2, 4]	Mortality(%) 48 Hours After (yearling carps; 0.1 ppm in water)	Mortality(%) 48 Hours After (yearling carps; 1 ppm in water)	mortality at 20 ppm ([2]; 48 h)	mortality at 100 ppm ([2]; 48 h)
CCOc1ccc(C(C)(C)CCCc2ccc(F)c(Oc3ccc(F)cc3)c2)cc1Cl [Compound 67]	100%	100%	60%	100%	0%	0%		
CCOc1ccc(C(C)(C)CCCc2cccc(Oc3ccc(F)cc3)c2)cc1 [Compound 41]	100%	100%			0%	0%		
CC(C)(CCCc1cccc(Oc2ccccc2)c1)c1cccc(C(F)(F)F)c1 [Compound 2, 1-(3-phenoxyphenyl)-4-(3-trifluoromethylphenyl)-4-methylpentane]	80%	100%						
CC(C)(CCCc1cccc(Oc2ccccc2)c1)c1ccc(Cl)c(Cl)c1 [Compound 26]	50%	100%			0%	0%		
CCOc1ccc(C(C)(C)CCCc2cccc(Oc3ccccc3F)c2)cc1 [Compound 42]	100%	100%						
CCOc1ccc(C(C)(C)CCCc2cccc(Oc3ccccc3)c2)cc1OCC [Compound 28]	80%	100%						
CC(C)(CCCc1cccc(Oc2ccccc2)c1)c1ccc2ccccc2c1 [Compound 18, 1-(3-Phenoxyphenyl)-4-(2-naphthyl)-4-methylpentane]	100%	100%			0%	0%		
CC(C)(CCCc1cccc(Oc2ccccc2)c1)c1ccc(C=C(Cl)Cl)cc1 [Compound 63]	100%	100%	70%	100%				
CCOc1ccc(C(C)(C)CCCc2cccc(Oc3ccc(Cl)cc3)c2)cc1 [Compound 39]	90%	100%						
CCC(C)(CCCc1cccc(Oc2ccccc2)c1)c1ccc(Cl)cc1 (centres unmarked) [Compound 7, 1-(3-phenoxyphenyl)-4-(4-chlorophenyl)-4-methylhexane]	65%	100%						
CCOc1ccc(C(C)(C)CCCc2ccc(F)c(Oc3ccccc3)c2)cc1 [Compound 3, 1-(3-phenoxy-4-fluorophenyl)-4-(4-ethoxyphenyl)-4-methylpentane]	100%	100%	100%	100%				
CC(C)(CCCc1cccc(Oc2ccccc2)c1)c1ccc(OC(F)(F)C(Cl)Cl)cc1 [Compound 25]	90%	100%						
CC(C)(CCCc1cccc(Oc2ccccc2)c1)c1ccc(C(=O)OCCF)cc1 [Compound 68]	40%	80%						
CCOc1ccc(C(C)(C)CCCc2ccc(F)c(Sc3ccccc3)c2)cc1 [Compound 36]	100%	100%						
CC(C)(CCCc1cccc(Oc2ccccc2)c1)c1ccc(OC(F)F)cc1 [Compound 32]	100%	100%	100%	100%				
COc1ccc(C(C)(C)CCCc2cccc(Oc3ccccc3)c2)cc1OC [Compound 22]	50%	95%						
CCOc1ccc(C(C)(C)CCCc2cccc(C(=O)c3ccccc3)c2)cc1Br [Compound 13, 1-(3-benzoylphenyl)-4-(3-bromo-4-ethoxyphenyl)-4-methylpentane]	40%	100%						
COc1ccc(C(C)(C)CCCc2cccc(Oc3ccccc3)c2)cc1 [Compound 5, 1-(3-phenoxyphenyl)-4-(4-methoxyphenyl)-4-methylpentane]	100%	100%			0%	0%		
CC(C)C(C)(CCCc1cccc(Oc2ccccc2)c1)c1ccc(Cl)cc1 (centres unmarked) [Compound 49]	60%	100%						
CCOc1ccc(C(C)(C)CCCc2cccc(Sc3ccccc3)c2)cc1 [Compound 30]	70%	100%						
